Laboratory results from PMC6886523 (Nature chemical biology, 2017).
≈ marks a conversion by molar mass, not a printed value.

Legend:
[1] = test system: Mtb; format: cell-based, Mycobacterium tuberculosis
[2] = target: TrpAB (Mycobacterium tuberculosis, UniProt P9WFX9+P9WFY1); format: biochemical
[3] = target: T1, Mtb TrpAB (Mycobacterium tuberculosis, UniProt P9WFX9+P9WFY1); format: biochemical
[4] = target: T1, Mtb TrpAB; format: binding
[5] = test system: GAPDH; assay: GAPDH counter-check in coupled fluorescence assay; conditions: fluorescence assay conditions
[6] = in vitro; conditions: mouse, hepatocytes
[7] = test system: panel of Gram-negative and Gram-positive bacterial species; format: cell-based
[8] = target: T1, Mtb TrpAB; format: biochemical; remark: listed apart in the source
[9] = test system: Mtb in J774 macrophages; format: cell-based; conditions: day 3 CFU/day 0 CFU
[10] = ref PubChem compound ID 54650477; cited from earlier work
[11] = in vitro; conditions: mouse, microsomes
[12] = target: T1, Mtb TrpAB
[13] = test system: M. marinum; assay: Zebrafish embryo infection, wild-type M. marinum; format: in vivo, Danio rerio (zebrafish); conditions: after 5 d of treatment
[14] = test system: Mtb; assay: microbe, parasite or virus in culture; format: cell-based

T1 sequence (P9WFY1 whole entry): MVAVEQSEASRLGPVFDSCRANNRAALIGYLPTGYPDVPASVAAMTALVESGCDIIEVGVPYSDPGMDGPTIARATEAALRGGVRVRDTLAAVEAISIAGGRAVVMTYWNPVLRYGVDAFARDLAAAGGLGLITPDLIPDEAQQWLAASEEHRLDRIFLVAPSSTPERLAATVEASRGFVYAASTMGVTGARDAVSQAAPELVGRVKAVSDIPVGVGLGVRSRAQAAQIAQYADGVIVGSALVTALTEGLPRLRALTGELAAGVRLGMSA
T1 sequence (P9WFX9 12-421): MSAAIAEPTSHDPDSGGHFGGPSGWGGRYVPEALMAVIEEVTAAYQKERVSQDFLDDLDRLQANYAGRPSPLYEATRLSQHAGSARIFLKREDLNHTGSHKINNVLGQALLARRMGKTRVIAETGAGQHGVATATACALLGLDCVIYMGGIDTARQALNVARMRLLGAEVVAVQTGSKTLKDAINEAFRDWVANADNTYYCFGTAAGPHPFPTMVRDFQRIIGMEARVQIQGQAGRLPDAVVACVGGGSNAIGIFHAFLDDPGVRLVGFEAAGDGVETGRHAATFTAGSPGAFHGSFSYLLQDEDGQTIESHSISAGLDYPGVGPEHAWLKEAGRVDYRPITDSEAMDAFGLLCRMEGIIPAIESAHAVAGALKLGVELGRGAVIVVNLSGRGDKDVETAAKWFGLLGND
Sequence of TrpAB (P9WFX9 12-421): as above
Sequence of TrpAB (P9WFY1 whole entry): as the sequence (P9WFY1 whole entry) above

N#C[C@@H]1N[C@@H](CO)[C@H]1c1ccc(-c2ccccc2F)cc1 [BRD4592, (2R,3S,4R)-3-(2′-fluoro-[1,1′-biphenyl]-4-yl)-4-(hydroxymethyl)azetidine-2-carbonitrile]
reduction of colony-forming units (CFUs) of Mtb cultures [1]: 2–3 logs | reversibility of inhibition [2]: reversible inhibitor | initial inhibition of the β-reaction [3]: more than 200 fold | kcat^β under saturating compound [3]: 0.00433 ± 0.00017 s⁻¹ | mode of inhibition with respect to indole [3]: uncompetitive | rate of L-Trp production slower than uninhibited enzyme [3]: 750 times | increase in affinity of TrpAB for L-Trp [4]: 4.5 fold | inhibition of GAPDH activity [5]: not found to inhibit | hepatocyte CLint at 1 μM [6]: 47.2 µL/min/1e6 cells | spectrum of activity against bacterial species [7]: active against several mycobacterial species but not other bacteria tested | initial inhibition of the α-reaction [8]: more than 200 fold | kcat^α under saturating compound [8]: 0.0013 ± 0.00017 s⁻¹ | mode of inhibition versus IGP [8]: uncompetitive | mode of inhibition versus L-Ser [8]: mixed-type inhibitor | α value (mixed-type inhibition) [8]: 0.81 ± 0.06 | α values (mixed model) [8]: < 0.00001 | restriction of Mtb growth in macrophages compared to DMSO [9]: eight-fold | activity in 36 screens reported in PubChem [10]: no activity | microsomal CLint at 1 μM [11]: 336 µL/min/mg | Tm of TrpAB with compound [12]: 81.6 ± 0.2 °C | increase of Tm of TrpAB in active β^C conformation [12]: 8 °C | stabilization of the open conformation [12]: did not stabilize | restriction of M. marinum growth in zebrafish embryos compared to DMSO [13]: ~ 1.5 logs | effect of L-Trp addition to growth medium on lethal effects ([14]; 1 mM L-Trp supplementation): rescued | MIC90 ([14]; Mycobacterium tuberculosis, read-out: MIC90 (minimal concentration needed to inhibit 90% of bacterial growth)): 3 µM (≈ 0.847 µg/mL) | activity among the stereoisomers of the azetidine ([14]; three stereogenic centers, eight stereoisomeric forms): only the BRD4592 stereoisomer was active
